Tested on: mouse liver
Assay: LNP-mediated delivery of RNA to the mouse liver (luciferase activity of liver homogenate)
Type: in vivo
Conditions: C57BL6 male mice, i.v. 1 mg/kg, Firefly luciferase mRNA-LNPs, liver at 6, 24, 48 hours
Method: To measure the effectiveness of LNP-mediated delivery of firefly luciferase containing particles to the liver, LNPs were formulated and characterized as described herein and tested in vitro prior to administration to mice. C57BL6 male mice (Charles River Labs) at approximately 8 weeks of age were dosed with LNPs via intravenous (i.v.) route at 1 mg/kg. Vehicle control animals were dosed i.v. with 300 μL phosphate buffered saline. Mice were injected via intraperitoneal route with dexamethasone at 5 mg/kg 30 minutes prior to injection of LNPs. Tissues were collected at necropsy at or 6, 24, 48 hours after LNP administration with a group size of 5 mice per time point. Liver and other tissue samples were collected, snap-frozen in liquid nitrogen, and stored at −80° C. until analysis.
Frozen liver samples were pulverized on dry ice and transferred to homogenization tubes containing lysing matrix D beads (MP Biomedical). Ice-cold 1× luciferase cell culture lysis reagent (CCLR) (Promega) was added to each tube and the samples were homogenized in a Fast Prep-24 5G Homogenizer (MP Biomedical) at 6 m/s for 40 seconds. The samples were transferred to a clean microcentrifuge tube and clarified by centrifugation. Prior to luciferase activity assay, the protein concentration of liver homogenates was determined for each sample using the Pierce™ BCA Protein Assay Kit (ThermoFisher Scientific) according to the manufacturer's instructions. Luciferase activity was measured with […] (total protein) of liver homogenate using the luciferase assay reagent (Promega) according to manufacturer's instructions using an i3X SpectraMax plate reader (Molecular Devices). […] Reporter activity by the various formulations followed the ranking LIPIDV005>LIPIDV004>LIPIDV003. RNA expression was transient and enzyme levels returned near vehicle background by 48 hours. Post-administration. This assay validated the use of these ionizable lipids and their respective formulations for RNA systems for delivery to the liver.

Compound	luciferase reporter activity in liver samples
CCCCC/C=C\C/C=C\CCCCCCCC(=O)OCC(COC(=O)CCC(OCCCCCCCC)OCCCCCCCC)COC(=O)OCCCN(CC)CC (stereo not drawn) [LIPIDV003, (9Z,12Z)-3-((4,4-bis(octyloxy)butanoyl)oxy)-2-((((3-(diethylamino)propoxy)carbonyl)oxy)methyl)propyl octadeca-9,12-dienoate]	LIPIDV005>LIPIDV004>LIPIDV003
CCCCCCCCCOC(=O)CCCCCCCN(CCO)CCCCCCCC(=O)OC(CCCCCCCC)CCCCCCCC [LIPIDV004, Heptadecan-9-yl 8-((2-hydroxyethyl)(8-(nonyloxy)-8-oxooctyl)amino)octanoate]	LIPIDV005>LIPIDV004>LIPIDV003
CCCCCCCC(=O)N(CCCN(C)C)C(CCCCCCCCC(=O)OC(CCCCCC)CCCCCC)CCCCCCCCC(=O)OC(CCCCCC)CCCCCC [LIPIDV005]	LIPIDV005>LIPIDV004>LIPIDV003
